Laboratory results as given in patent publication US9522888B2, “Substituted bicyclic compounds” (BRISTOL-MYERS SQUIBB COMPANY, priority 2014, dated 2016).

Assays:
human S1P1 = human S1P1 (Homo sapiens (Human), UniProt P21453); assay: S1P1 binding assay (33P-S1P radioligand competition, CHO cell membranes); settings: phosphate examples; read-out: S1P1 Binding
Summary of the method: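 Radioligand is 33P-S1P, competing for membranes from human S1P1-expressing CHO cells. Membranes resuspended in 50 mM HEPES pH 7.5, 100 mM NaCl, 1 mM MgCl2, 2 mM EDTA.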

[1] = target: S1P3 (membranes prepared from EDG3-Gal5-bla HEK293T cells) (Homo sapiens (Human), UniProt Q99500); assay: Receptor [35S] GTPγS binding assay (S1P3 GTPγS); format: biochemical; settings: phosphate examples; read-out: S1P3 GTPγS
Summary of the method: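 Membranes (3 μg protein/well) from S1P1/CHO cells or EDG3-Gal5-bla HEK293T cells (S1P3) were incubated 45 min at room temperature with 0.2 nM final [35S]GTPγS in HEPES pH 7.5 buffer with 10 μM GDP, MgCl2 and saponin. Bound label counted after filtration; EC50 from 11-point, 3-fold dilutions.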

hS1P1/CHO cells = hS1P1/CHO cells (Homo sapiens (Human), UniProt P21453); assay: hS1P1 ERK phosphorylation (S1P1 pERK); format: cell-based; settings: phosphate examples
Summary of the method: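 CHO cells expressing human S1P1, serum-starved 2 h, exposed to compound in HBSS/20 mM HEPES for 7 min at 37° C. Lysates assayed for phospho-ERK by SureFire kit; response given as % activation relative to 10 μM S1P.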

[2] = target: S1P1 (membranes prepared from S1P1/CHO cells) (Homo sapiens (Human), UniProt P21453); assay: Receptor [35S] GTPγS binding assay (S1P1 GTPγS); format: biochemical; settings: phosphate examples; read-out: S1P1 GTPγS
Summary of the method: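 Membranes from S1P1-expressing CHO cells (3 μg protein/well) incubated with compound (11-point, 3-fold dilution) and 0.2 nM final [35S]GTPγS, 45 min at room temperature. Assay buffer: 20 mM HEPES pH 7.5, 10 mM MgCl2, 150 mM NaCl, 10 μM GDP, 0.1% fatty-acid-free BSA, 10 μg/ml saponin. Filter-bound radioactivity counted by scintillation; EC50 derived.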

Sequence of S1P3 (membranes prepared from EDG3-Gal5-bla HEK293T cells) (Q99500 whole entry): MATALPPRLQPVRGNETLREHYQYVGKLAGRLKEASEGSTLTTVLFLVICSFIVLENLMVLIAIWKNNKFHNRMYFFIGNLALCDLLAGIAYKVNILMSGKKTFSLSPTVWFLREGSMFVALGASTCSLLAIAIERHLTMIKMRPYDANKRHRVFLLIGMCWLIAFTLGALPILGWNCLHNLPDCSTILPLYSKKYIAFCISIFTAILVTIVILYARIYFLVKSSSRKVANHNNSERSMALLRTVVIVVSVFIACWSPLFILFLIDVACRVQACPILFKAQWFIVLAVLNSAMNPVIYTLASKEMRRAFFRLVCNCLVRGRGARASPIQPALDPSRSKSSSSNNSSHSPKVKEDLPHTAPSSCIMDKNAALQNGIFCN
Sequence of S1P1 (membranes prepared from S1P1/CHO cells) (P21453 whole entry): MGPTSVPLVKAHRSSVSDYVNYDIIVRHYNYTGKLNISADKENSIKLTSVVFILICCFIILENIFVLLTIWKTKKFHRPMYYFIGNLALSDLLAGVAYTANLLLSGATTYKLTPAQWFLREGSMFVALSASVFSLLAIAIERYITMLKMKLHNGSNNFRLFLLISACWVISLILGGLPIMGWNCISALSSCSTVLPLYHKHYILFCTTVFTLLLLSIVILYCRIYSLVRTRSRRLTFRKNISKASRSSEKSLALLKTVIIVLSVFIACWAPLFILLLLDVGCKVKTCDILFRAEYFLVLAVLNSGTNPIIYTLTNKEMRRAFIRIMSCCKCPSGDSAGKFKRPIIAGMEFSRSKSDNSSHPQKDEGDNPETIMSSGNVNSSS
Sequence of hS1P1/CHO cells (P21453 whole entry): as above
Sequence of human S1P1 (P21453 whole entry): as above

| Compound | IC50 (human S1P1) | EC50 [1] | EC50 (hS1P1/CHO cells) | EC50 [2] |
| --- | --- | --- | --- | --- |
| C=CCCOC[C@@H]1CCc2cc([C@H]3CC[C@](N)(COP(=O)(O)O)C3)ccc2C1 [compound 452] | < 10 nM | > 625 nM | < 10 nM | < 10 nM |
| CC(C)=CCOC[C@@H]1CCc2cc([C@H]3CC[C@](N)(COP(=O)(O)O)C3)ccc2C1 [compound 453] | 10 to 100 nM | > 625 nM | < 10 nM | 10 to 100 nM |
| C=CCCCOC[C@@H]1CCc2cc([C@H]3CC[C@](N)(COP(=O)(O)O)C3)ccc2C1 [compound 454] | < 10 nM | > 625 nM | < 10 nM | 10 to 100 nM |
| CC/C=C\COC[C@@H]1CCc2cc([C@H]3CC[C@](N)(COP(=O)(O)O)C3)ccc2C1 [compound 455] | < 10 nM | > 625 nM | < 10 nM | < 10 nM |
| CCC=CCOC[C@@H]1CCc2cc([C@H]3CC[C@](N)(COP(=O)(O)O)C3)ccc2C1 [compound 456] | 10 to 100 nM | > 625 nM | < 10 nM | < 10 nM |
| CC(C)CCOC[C@@H]1CCc2cc([C@H]3CC[C@](N)(COP(=O)(O)O)C3)ccc2C1 [compound 457] | < 10 nM | > 625 nM | < 10 nM | 10 to 100 nM |
| COCCCOC[C@@H]1CCc2cc([C@H]3CC[C@](N)(COP(=O)(O)O)C3)ccc2C1 [compound 458] | < 10 nM | > 625 nM | < 10 nM | 10 to 100 nM |
| N[C@]1(COP(=O)(O)O)CC[C@H](c2ccc3c(c2)CC[C@H](COc2ccccc2)C3)C1 [compound 459] | < 10 nM | > 625 nM | < 10 nM | 10 to 100 nM |
| CC(C)=CCCOC[C@@H]1CCc2cc([C@H]3CC[C@](N)(COP(=O)(O)O)C3)ccc2C1 [compound 461] | < 10 nM | > 625 nM | < 10 nM | < 10 nM |
| CCCC=CCOC[C@@H]1CCc2cc([C@H]3CC[C@](N)(COP(=O)(O)O)C3)ccc2C1 [compound 462] | < 10 nM | > 50 nM | < 10 nM | < 10 nM |
| CC(C)(C)CCOC[C@@H]1CCc2cc([C@H]3CC[C@](N)(COP(=O)(O)O)C3)ccc2C1 [compound 464] | < 10 nM | > 625 nM | 10 to 100 nM | < 10 nM |
| Cc1ccc(OC[C@H]2CCc3cc([C@H]4CC[C@](N)(COP(=O)(O)O)C4)ccc3C2)cc1 [compound 466] | 10 to 100 nM | > 625 nM | 10 to 100 nM | 10 to 100 nM |
| Cc1ccc(OC[C@@H]2CCc3cc([C@H]4CC[C@](N)(COP(=O)(O)O)C4)ccc3C2)cc1 [compound 467] | 10 to 100 nM | > 625 nM | 10 to 100 nM | 10 to 100 nM |
| Cc1ccccc1OC[C@H]1CCc2cc([C@H]3CC[C@](N)(COP(=O)(O)O)C3)ccc2C1 [compound 468] | < 10 nM | > 625 nM | 10 to 100 nM | 10 to 100 nM |
| Cc1ccccc1OC[C@@H]1CCc2cc([C@H]3CC[C@](N)(COP(=O)(O)O)C3)ccc2C1 [compound 469] | 10 to 100 nM | > 625 nM | < 10 nM | 10 to 100 nM |
| Cc1cccc(OC[C@@H]2CCc3cc([C@H]4CC[C@](N)(COP(=O)(O)O)C4)ccc3C2)c1 [compound 470] | 100 to 1000 nM | > 625 nM | < 10 nM | 10 to 100 nM |
| N[C@]1(COP(=O)(O)O)CC[C@H](c2ccc3c(c2)CC[C@@H](COCc2cccs2)C3)C1 [compound 472] | 100 to 1000 nM | > 625 nM | < 10 nM | 100 to 1000 nM |
| Cc1ccc(COC[C@@H]2CCc3cc([C@H]4CC[C@](N)(COP(=O)(O)O)C4)ccc3C2)cc1 [compound 474] | < 10 nM | > 625 nM | < 10 nM | 10 to 100 nM |
| COc1ccccc1OC[C@@H]1CCc2cc([C@H]3CC[C@](N)(COP(=O)(O)O)C3)ccc2C1 [compound 475] | < 10 nM | > 625 nM | < 10 nM | 10 to 100 nM |
| COc1ccc(OC[C@@H]2CCc3cc([C@H]4CC[C@](N)(COP(=O)(O)O)C4)ccc3C2)cc1 [compound 476] | 10 to 100 nM | > 625 nM | 10 to 100 nM | 10 to 100 nM |
| COc1cncc(OC[C@@H]2CCc3cc([C@H]4CC[C@](N)(COP(=O)(O)O)C4)ccc3C2)c1 [compound 477] | < 10 nM | > 625 nM | < 10 nM | 10 to 100 nM |

| Compound | IC50 (human S1P1) | EC50 [1] | EC50 (hS1P1/CHO cells) | EC50 [2] |
| --- | --- | --- | --- | --- |
| CC(C)c1cccc(OC[C@@H]2CCc3cc([C@H]4CC[C@](N)(COP(=O)(O)O)C4)ccc3C2)c1 [compound 478] | 10 to 100 nM | > 625 nM | 10 to 100 nM | 10 to 100 nM |
| CC(C)c1ccc(OC[C@@H]2CCc3cc([C@H]4CC[C@](N)(COP(=O)(O)O)C4)ccc3C2)cc1 [compound 479] | 100 to 1000 nM | > 625 nM | 10 to 100 nM | 10 to 100 nM |
| COCc1cccc(OC[C@@H]2CCc3cc([C@H]4CC[C@](N)(COP(=O)(O)O)C4)ccc3C2)c1 [compound 480] | 1000 to 10000 nM | > 625 nM | 100 to 1000 nM | < 10 nM |
| COc1cccc(COC[C@H]2CCc3cc([C@H]4CC[C@](N)(COP(=O)(O)O)C4)ccc3C2)c1 [compound 481] | < 10 nM | > 625 nM | < 10 nM | < 10 nM |
| COc1ccc(COC[C@@H]2CCc3cc([C@H]4CC[C@](N)(COP(=O)(O)O)C4)ccc3C2)cc1 [compound 482] | 100 to 1000 nM | > 625 nM | 10 to 100 nM | 10 to 100 nM |
| COc1ccc(F)c(OC[C@@H]2CCc3cc([C@H]4CC[C@](N)(COP(=O)(O)O)C4)ccc3C2)c1 [compound 484] | 100 to 1000 nM | > 625 nM | 10 to 100 nM | 10 to 100 nM |
| COc1cc(OC[C@@H]2CCc3cc([C@H]4CC[C@](N)(COP(=O)(O)O)C4)ccc3C2)ccc1F [compound 485] | 10 to 100 nM | > 625 nM | 10 to 100 nM | 10 to 100 nM |
| CCc1ccc(COC[C@@H]2CCc3cc([C@H]4CC[C@](N)(COP(=O)(O)O)C4)ccc3C2)s1 [compound 489] | < 10 nM | > 625 nM | < 10 nM | 10 to 100 nM |
| CN(C)Cc1cccc(OC[C@@H]2CCc3cc([C@H]4CC[C@](N)(COP(=O)(O)O)C4)ccc3C2)c1 [compound 490] | < 10 nM | > 625 nM | 10 to 100 nM | 100 to 1000 nM |
| COc1ccc(OC[C@@H]2CCc3cc([C@H]4CC[C@](N)(COP(=O)(O)O)C4)ccc3C2)cc1OC [compound 491] | < 10 nM | > 625 nM | 10 to 100 nM | < 10 nM |
| COc1cc(OC[C@@H]2CCc3cc([C@H]4CC[C@](N)(COP(=O)(O)O)C4)ccc3C2)ccc1Cl [compound 493] | < 10 nM | > 625 nM | 10 to 100 nM | < 10 nM |
| COc1ccc(OC[C@@H]2CCc3cc([C@H]4CC[C@](N)(COP(=O)(O)O)C4)ccc3C2)c(F)c1F [compound 494] | 10 to 100 nM | > 625 nM | 10 to 100 nM | 10 to 100 nM |
| CN(C)C(=O)c1cccc(OC[C@@H]2CCc3cc([C@H]4CC[C@](N)(COP(=O)(O)O)C4)ccc3C2)c1 [compound 495] | 10 to 100 nM | > 625 nM | < 10 nM | 10 to 100 nM |
| Cn1nc(OC[C@@H]2CCc3cc([C@H]4CC[C@](N)(COP(=O)(O)O)C4)ccc3C2)cc1C(F)(F)F [compound 496] | < 10 nM | > 625 nM | < 10 nM | < 10 nM |
| N[C@]1(COP(=O)(O)O)CC[C@H](c2ccc3c(c2)CC[C@@H](COc2cccc(OC(F)(F)F)c2)C3)C1 [compound 497] | 10 to 100 nM | > 625 nM | < 10 nM | < 10 nM |
| COc1cc(OC[C@@H]2CCc3cc([C@H]4CC[C@](N)(COP(=O)(O)O)C4)ccc3C2)ccc1C(C)(C)C [compound 498] | 10 to 100 nM | > 625 nM | 10 to 100 nM | 100 to 1000 nM |
| N[C@]1(COP(=O)(O)O)CC[C@H](c2ccc3c(c2)CC[C@@H](COCc2ccc(C(F)(F)F)s2)C3)C1 [compound 499] | < 10 nM | > 625 nM | 10 to 100 nM | 10 to 100 nM |
| CCCSC[C@@H]1CCc2cc([C@H]3CC[C@](N)(COP(=O)(O)O)C3)ccc2C1 [compound 503] | < 10 nM | > 625 nM | < 10 nM | < 10 nM |
| CC(C)CSC[C@@H]1CCc2cc([C@H]3CC[C@](N)(COP(=O)(O)O)C3)ccc2C1 [compound 504] | < 10 nM | > 625 nM | < 10 nM | 10 to 100 nM |
| CCCCSC[C@H]1CCc2cc([C@@H]3CC[C@](N)(COP(=O)(O)O)C3)ccc2C1 [compound 505] | 10 to 100 nM | > 625 nM | 10 to 100 nM | 10 to 100 nM |
